In US20090042856A1, “PYRIDAZINONE DERIVATIVES USED FOR THE TREATMENT OF PAIN” (Astellas Pharma Inc, priority 2005, published 2009):
Where a name gives a salt, the structure may show the parent alone.

test system: adjuvant-induced arthritis rats; assay: Inhibition of hind paw swelling in adjuvant-induced arthritis rats; format: in vivo, Lewis rats; conditions: Rattus norvegicus, po, 600 h, dose 0.3 mg/kg orally once a day from days 15 to 24, left hind paw volume on day 25, read-out: % inhibition of vehicle-treated rats
Method: Arthritis was induced by injection of 0.5 mg of Mycobacterium tuberculosis (Difco Laboratories, Detroit, Mich.) in 50 μL of liquid paraffin into the right hind footpad of female Lewis rats aged 7 weeks (day 0). Normal untreated rats were used as negative controls. Animals were randomized and grouped (n≧5) for drug treatment based on an increase of left hind paw volume and body weight on day 15. Test compounds were suspended in vehicle (0.5% methylcellulose) and orally administered once a day from days 15 to 24. The volume of the left hind paw was measured on day 25 by a water displacement method using a plethymometer for rats (MK-550; Muromachi Kikai Co., Ltd., Tokyo, Japan).

Row | Structure (SMILES) | inhibition in vivo at 0.3 mg/kg [%]
1 | Cc1ccccc1-n1nc(-c2c(-c3ccc(F)cc3F)nn3c2NCC(CN(C)C)C3)ccc1=O (stereo not shown) [Example 1, 6-{2-(2,4-difluorophenyl)-6-[(dimethylamino)methyl]-4,5,6,7-tetrahydropyrazolo[1,5-a]pyrimidin-3-yl}-2-(2-methylphenyl)-3(2H)-pyridazinone] | 51.2

same assay, conditions: Rattus norvegicus, po, 600 h, dose 0.5 mg/kg orally once a day from days 15 to 24, left hind paw volume on day 25, read-out: % inhibition of vehicle-treated rats

Row | Structure (SMILES) | inhibition in vivo at 0.5 mg/kg [%]
2 | Cc1ccccc1-n1nc(-c2c(-c3ccc(F)cc3)nn3c2NC[C@@H](O)C3)ccc1=O [Example 100, 6-[(6R)-2-(4-Fluorophenyl)-6-hydroxy-4,5,6,7-tetrahydropyrazolo[1,5-a]pyrimidin-3-yl]-2-(2-methylphenyl)pyridazin-3(2H)-one] | 40.2

same assay, conditions: Rattus norvegicus, po, 600 h, dose 1 mg/kg orally once a day from days 15 to 24, left hind paw volume on day 25, read-out: % inhibition of vehicle-treated rats

Row | Structure (SMILES) | inhibition in vivo at 1 mg/kg [%]
3 | Cc1ccccc1-n1nc(-c2c(-c3ccc(F)cc3)nn3c2NC(CO)CC3)ccc1=O (stereo in doubt) [Example 124, 6-[(5S)-2-(4-Fluorophenyl)-5-(hydroxymethyl)-4,5,6,7-tetrahydropyrazolo[1,5-a]pyrimidin-3-yl]-2-(2-methylphenyl)pyridazin-3(2H)-one] | 50.6
4 | Cc1ccccc1-n1nc(-c2c(-c3ccc(F)cc3)nn3c2NCC2(C3)OCCO2)ccc1=O [Example 86, 6-[2′-(4-Fluorophenyl)-4′,5′-dihydrospiro[1,3-dioxolane-2,6′-pyrazolo[1,5-a]pyrimidin]-3′-yl]-2-(2-methylphenyl)pyridazin-3(2H)-one] | 48.1
5 | Cc1ccccc1-n1nc(-c2c(-c3ccc(F)cc3)nn3c2NCC(CO)C3)ccc1=O (stereo not shown) [Example 3, 6-[2-(4-Fluorophenyl)-6-(hydroxymethyl)-4,5,6,7-tetrahydropyrazolo[1,5-a]pyrimidin-3-yl]-2-(2-methylphenyl)-3(2H)-pyridazinone] | 56.4
6 | Cc1ccccc1-n1nc(-c2c(-c3ccc(F)cc3)nn3c2NCC2(CCOCC2)C3)ccc1=O [Example 63, 6-[2′-(4-Fluorophenyl)-2,3,4′,5,5′,6-hexahydrospiro[pyran-4,6′-pyrazolo[1,5-a]pyrimidin]-3′-yl]-2-(2-methylphenyl)pyridazin-3(2H)-one] | 39.5
7 | Cc1ccccc1-n1nc(-c2c(-c3ccc(F)cc3F)nn3c2NCC(CO)C3)ccc1=O (stereo not shown) [Example 37, 6-[2-(2,4-Difluorophenyl)-6-(hydroxymethyl)-4,5,6,7-tetrahydropyrazolo[1,5-a]pyrimidin-3-yl]-2-(2-methylphenyl)pyridazin-3(2H)-one] | 63.6
8 | Cc1ccccc1-n1nc(-c2c(-c3ccc(F)cc3)nn3c2NCC(C)(C)C3)ccc1=O [Example 132, 6-[2-(4-Fluorophenyl)-6,6-dimethyl-4,5,6,7-teterahydropyrazolo[1,5-a]pyrimidin-3-yl]-2-(2-methylphenyl)pyridazin-3(2H)-one] | 60.4
9 | Cc1ccccc1-n1nc(-c2c(-c3ccc(F)cc3)nn3c2NCC(O)C3)ccc1=O (stereo not shown) [Example 18, 6-[2-(4-Fluorophenyl)-6-hydroxy-4,5,6,7-tetrahydropyrazolo[1,5-a]pyrimidin-3-yl]-2-(2-methylphenyl)-3(2H)-pyridazinone] | 46.1
10 | Cc1ccccc1-n1nc(-c2c(-c3ccc(F)cc3)nn3c2N[C@H](CO)CC3)ccc1=O [Example 123, 6-[(5S)-2-(4-fluorophenyl)-5-(hydroxymethyl)-4,5,6,7-tetrahydropyrazolo[1,5-a]pyrimidin-3-yl]-2-(2-methylphenyl)pyridazin-3(2H)-one] | 62.3

test system: TNF-α production in THP-1 cells; assay: Inhibition of TNF-α production in THP-1 cells; format: cell-based; conditions: Homo sapiens; TNF-α levels from LPS (10 μg/mL) stimulated THP-1 cells, 100 nM test compound, 20 hours, vs 0.1% DMSO control
Method: THP-1 cells, a human monocytic cell line, were maintained in RPMI 1640 (Sigma R8758) supplemented with penicillin (50 U/ml), streptomycin (50 μg/ml) and 10% fetal bovine serum (Moregate BioTech.) at 37° C., 5% CO2 in a humidified incubator. Initial stock solutions of test compounds were made in DMSO. All cells, reagents and test compounds were diluted into culture media. THP-1 cells (1×10^5 cells/well final) and lipopolysaccharide (LPS; 10 μg/mL final; Sigma L-4005, from E. coli serotype 055:B5) were added to 96 well polypropylene culture plates (Sumilon, MS-8196F5; sterile) containing test compound or 0.1% DMSO vehicle. The cell mixture was incubated for 20 hours in a humidified incubator at 37° C., 5% CO2. The culture supernatants were harvested and TNF-α levels from LPS stimulated cells in the presence of 100 nM test compound was calculated compared with control cells stimulated in the presence of 0.1% DMSO.

Row | Structure (SMILES) | inhibition at 0.1 µM [%]
11 | Cc1ccccc1-n1nc(-c2c(-c3ccc(F)cc3)nn3c2NCC(C(=O)NC2CC2)C3)ccc1=O (stereo not shown) [Example 57, N-cyclopropyl-2-(4-fluorophenyl)-3-[1-(2-methylphenyl)-6-oxo-1,6-dihydropyridazin-3-yl]-4,5,6,7-tetrahydropyrazolo[1,5-a]pyrimidine-6-carboxamide] | 97
12 | Cc1ccccc1-n1nc(-c2c(-c3ccc(F)cc3)nn3c2NCC(F)(F)C3)ccc1=O [Example 85, 6-[6,6-Difluoro-2-(4-fluorophenyl)-4,5,6,7-tetrahydropyrazolo[1,5-a]pyrimidin-3-yl]-2-(2-methylphenyl)pyridazin-3(2H)-one] | 88
13 | Cc1ccccc1-n1nc(-c2c(-c3ccc(F)cc3)nn3c2NC(CO)CC3)ccc1=O (stereo in doubt) [Example 124, 6-[(5S)-2-(4-Fluorophenyl)-5-(hydroxymethyl)-4,5,6,7-tetrahydropyrazolo[1,5-a]pyrimidin-3-yl]-2-(2-methylphenyl)pyridazin-3(2H)-one] | 94
14 | CC(=O)N1CCC2(CC1)CNc1c(-c3ccc(=O)n(-c4ccccc4C)n3)c(-c3ccc(F)cc3)nn1C2 [Example 107, 6-[1-acetyl-2′-(4-fluorophenyl)-4′,5′-dihydrospiro[piperidine-4,6′-pyrazolo[1,5-a]pyrimidin]-3′-yl]-2-(2-methylphenyl)pyridazin-3(2H)-one] | 90
15 | Cc1ccccc1N1N=C(c2c(-c3ccc(F)cc3F)nn3c2NCC(CN(C)C)C3)CCC1=O (stereo not shown) [Example 55, 6-{2-(2,4-difluorophenyl)-6-[(dimethylamino)methyl]-4,5,6,7-tetrahydropyrazolo[1,5-a]pyrimidin-3-yl}-2-(2-methylphenyl)-4,5-dihydropyridazin-3(2H)-one] | 98
16 | Cc1ccccc1-n1nc(-c2c(-c3ccc(F)cc3F)nn3cc(CN(C)C)cnc23)ccc1=O [Example 2, 6-{2-(2,4-Difluorophenyl)-6-[(dimethylamino)methyl]pyrazolo[1,5-a]pyrimidin-3-yl}-2-(2-methylphenyl)-3(2H)-pyridazinone] | 98
17 | Cc1ccccc1-n1nc(-c2c(-c3ccc(F)cc3)nn3c2OCC3)ccc1=O [Example 125, 6-[6-(4-fluorophenyl)-2,3-dihydropyrazolo[5,1-b][1,3]oxazol-7-yl]-2-(2-methylphenyl)pyridazin-3(2H)-one] | 83
18 | Cc1ccccc1-n1nc(-c2c(-c3ccc(F)cc3F)nn3c2NCC(CO)C3)ccc1=O (stereo not shown) [Example 37, 6-[2-(2,4-Difluorophenyl)-6-(hydroxymethyl)-4,5,6,7-tetrahydropyrazolo[1,5-a]pyrimidin-3-yl]-2-(2-methylphenyl)pyridazin-3(2H)-one] | 94
19 | Cc1ccccc1-n1nc(-c2c(-c3ccc(F)cc3)nn3c2NCC(CO)(CO)C3)ccc1=O [Example 35, 6-[2-(4-Fluorophenyl)-6,6-bis(hydroxymethyl)-4,5,6,7-tetrahydropyrazolo[1,5-a]pyrimidin-3-yl]-2-(2-methylphenyl)pyridazin-3(2H)-one] | 90
20 | CCN1CCn2nc(-c3ccc(F)cc3)c(-c3ccc(=O)n(-c4ccccc4C)n3)c21 [Example 6, 6-[1-Ethyl-6-(4-fluorophenyl)-2,3-dihydro-1H-imidazo[1,2-b]pyrazol-7-yl]-2-(2-methylphenyl)-3(2H)-pyridazinone] | 80
21 | Cc1ccccc1-n1nc(-c2c(-c3ccc(F)cc3)nn3c2N[C@H](CO)CC3)ccc1=O [Example 123, 6-[(5S)-2-(4-fluorophenyl)-5-(hydroxymethyl)-4,5,6,7-tetrahydropyrazolo[1,5-a]pyrimidin-3-yl]-2-(2-methylphenyl)pyridazin-3(2H)-one] | 94
22 | Cc1ccccc1-n1nc(-c2c(-c3ccccc3)nn3c2CN(C(C)C)CC3)ccc1=O [Example 130, 6-(5-isopropyl-2-phenyl-4,5,6,7-tetrahydropyrazolo[1,5-a]pyrazin-3-yl)-2-(2-methylphenyl)pyridazin-3(2H)-one] | 70
23 | Cc1ccccc1-n1nc(-c2c(-c3ccc(F)cc3F)nn3c2NCC(CNC(C)(C)C)C3)ccc1=O (stereo not shown) [Example 98, 6-{6-[(tert-Butylamino)methyl]-2-(2,4-difluorophenyl)-4,5,6,7-tetrahydropyrazolo[1,5-a]pyrimidin-3-yl}-2-(2-methylphenyl)pyridazin-3(2H)-one] | 86
24 | Cc1ccccc1-n1nc(-c2c(-c3ccc(F)cc3F)nn3c2NCC(CN(C)C)C3)ccc1=O (stereo not shown) [Example 1, 6-{2-(2,4-difluorophenyl)-6-[(dimethylamino)methyl]-4,5,6,7-tetrahydropyrazolo[1,5-a]pyrimidin-3-yl}-2-(2-methylphenyl)-3(2H)-pyridazinone] | 88
25 | Cc1ccccc1-n1nc(-c2c(-c3ccc(F)cc3)nn3c2NCC(CN2CCN(C)CC2)C3)ccc1=O (stereo not shown) [Example 47, 6-(2-(4-Fluorophenyl)-6-[(4-methylpiperazin-1-yl)methyl]-4,5,6,7-tetrahydropyrazolo[1,5-a]pyrimidin-3-yl)-2-(2-methylphenyl)pyridazin-3(2H)-one dihydrochloride] | 95
